What all share (format): functional
Experiment [1] relates to Bombyx mori. Nature of the experiment: Anti-juvenile hormone activity in Bombyx mori Shunrei x Shougetsu 24 hr old third-instar larvae exposed to compound through topical application to dorsal abdomen assessed as precocious metamorphosis at 10 ug/larva relative to untreated control.
The subject of experiment [2] is Bombyx mori. Nature of the experiment: Anti-juvenile hormone activity in Bombyx mori Shunrei x Shougetsu 24 hr old third-instar larvae exposed to compound through topical application to dorsal abdomen assessed as precocious metamorphosis at 40 ug/larva relative to untreated control.
Experiment [3] has as its system Bombyx mori. Nature of the experiment: Anti-juvenile hormone activity in Bombyx mori Shunrei x Shougetsu 24 hr old third-instar larvae exposed to compound through topical application to dorsal abdomen assessed as precocious metamorphosis at 0.1 ug/larva relative to untreated control.
Experiment [4] has as its system Bombyx mori. Nature of the experiment: Anti-juvenile hormone activity in Bombyx mori Shunrei x Shougetsu 24 hr old third-instar larvae exposed to compound through topical application to dorsal abdomen assessed as precocious metamorphosis at 1 ug/larva relative to untreated control.
Experiment [5] concerns Bombyx mori. Nature of the experiment: Anti-juvenile hormone activity in Bombyx mori Shunrei x Shougetsu 24 hr old fifth-instar larvae assessed as time required for onset of cocoon spinning starting from ecdysis day at 1 ug/1 ul applied topically (reference value: 8 +/- 1.2 days).
The test system of experiment [6] is Bombyx mori. Nature of the experiment: Anti-juvenile hormone activity in Bombyx mori Shunrei x Shougetsu newly molted fourth-instar larvae assessed as precocious metamorphosis at 1 ug/larva relative to untreated control.
Experiment [7] has as its system Bombyx mori. Nature of the experiment: Anti-juvenile hormone activity in Bombyx mori Shunrei x Shougetsu 72 hr old second-instar larvae assessed as precocious metamorphosis at 0.1 ug/larva relative to untreated control.
Experiment [8] deals with Bombyx mori. Nature of the experiment: Anti-juvenile hormone activity in Bombyx mori Shunrei x Shougetsu 72 hr old second-instar larvae assessed as precocious metamorphosis at 10 ug/larva relative to untreated control.
The test system of experiment [9] is Bombyx mori. Nature of the experiment: Anti-juvenile hormone activity in Bombyx mori Shunrei x Shougetsu newly molted fourth-instar larvae assessed as precocious metamorphosis at 10 ug/larva relative to untreated control.
The test system of experiment [10] is Bombyx mori. Nature of the experiment: Anti-juvenile hormone activity in Bombyx mori Shunrei x Shougetsu 72 hr old second-instar larvae assessed as precocious metamorphosis at 1 ug/larva relative to untreated control.
Experiment [11] deals with Bombyx mori. Nature of the experiment: Anti-juvenile hormone activity in Bombyx mori Shunrei x Shougetsu first 48 hr old newly molted third-instar larvae assessed as precocious metamorphosis at 200 ppm mixed with artificial diet untreated control.
The test system of experiment [12] is Bombyx mori. Nature of the experiment: Anti-juvenile hormone activity in Bombyx mori Shunrei x Shougetsu 24 hr old third-instar larvae exposed to compound through topical application to dorsal abdomen assessed as precocious metamorphosis at 0.1 ug/larva in presence of 20 ppm 20-hydroxyecdysone applied through diet for first 48 hr to 24 hr old newly molted fourth-instar larvae relative to untreated control.

For experiment [13], the system named is Bombyx mori. Nature of the experiment: Anti-juvenile hormone activity in Bombyx mori Shunrei x Shougetsu 24 hr old third-instar larvae exposed to compound through topical application to dorsal abdomen assessed as precocious metamorphosis at 0.1 ug/larva in presence of 10 ug/larva methoprene applied to 24 hr old third-instar larvae relative to untreated control.

The subject of experiment [14] is Bombyx mori. Nature of the experiment: Anti-juvenile hormone activity in Bombyx mori Shunrei x Shougetsu first 48 hr old newly molted third-instar larvae assessed as precocious metamorphosis at 50 ppm mixed with artificial diet untreated control.
In experiment [15] the test system is Bombyx mori. Nature of the experiment: Anti-juvenile hormone activity in Bombyx mori Shunrei x Shougetsu 24 hr old third-instar larvae exposed to compound through topical application to dorsal abdomen assessed as precocious metamorphosis at 0.1 ug/larva in presence of 20 ppm 20-hydroxyecdysone applied through diet for first 48 hr to 24 hr old third-instar larvae relative to untreated control.

Experiment [16] relates to Bombyx mori. Nature of the experiment: Anti-juvenile hormone activity in Bombyx mori Shunrei x Shougetsu 24 hr old third-instar larvae exposed to compound through topical application to dorsal abdomen assessed as precocious metamorphosis at 0.1 ug/larva in presence of 10 ug/larva methoprene applied to 24 hr old newly molted fourth-instar larvae relative to untreated control.

Turning to `CCCCCCC(COc1ccc(C(=O)OCC)cc1)Cc1ccccc1` (racemic), the Activity stood at 42% in [1], 62% in experiment [2], 0% in [3] and 20% in experiment [4].

For `CCOC(=O)c1ccc(OCC(Cc2ccccc2)CC(C)C)cc1` (racemic), the Activity is reported as 22% in [1], 46% in [2], 0% in experiment [3] and 0% in [4].

In the case of `COC(C)(C)CCC[C@H](C)C/C=C/C(C)=C/C(=O)OC(C)C` [METHOPRENE], the Time in experiment [5] is 10.9 days.

With `CCCC[C@H](COc1ccc(C(=O)OCC)cc1)Cc1ccccc1`, the Time in experiment [5] turned out to be 14.3 days. Further, the Activity was found to be 10% in experiment [6]; 17% in experiment [1]; 20% in [7]; 95% in [8]; 0% in experiment [9]; 15% in experiment [2]. The Activity in experiment [10] is on record as 89%; in experiment [3], 52%; in experiment [4], 96%.

On to `CCCCC[C@@H](COc1ccc(C(=O)OCC)cc1)Cc1ccccc1`, for which the Activity was determined as 83% in [1], 76% in experiment [2], 0% in experiment [3] and 54% in experiment [4].

On to `CCCC[C@@H](COc1ccc(C(=O)OCC)cc1)Cc1ccccc1`, for which the Time in experiment [5] worked out at 8.4 days. Moreover, the Activity in experiment [6] is 5%; in experiment [1], 42%; in experiment [7] it was 0%; in experiment [8], 0%; in experiment [9], 0%; in experiment [2], 67%. Also, the Activity was 0% in experiment [10], 0% in experiment [3] and 8% in experiment [4].

On to `CCOC(=O)c1ccc(OCC(CC)OC(=O)C(C)(C)C)cc1` (stereo not given), for which the Time in experiment [5] was 12.7 days. Besides, the Activity worked out at 0% in [1], 0% in experiment [2], 0% in experiment [3] and 10% in experiment [4].

For `CCOC(=O)c1ccc(OCC(CC)Cc2ccccc2)cc1` (racemic), the Activity came to 5% in experiment [1], 0% in experiment [3] and 0% in [4].

Turning to `CCCCC(COc1ccc(C(=O)OCC)cc1)Cc1ccccc1` (racemic), in experiment [5], the Time is 10.1 days. Moreover, the Activity in experiment [6] turned out to be 5%; in experiment [1], 34%; in experiment [11] it was 5%; in [7] it was 0%; in experiment [12], 100%; in experiment [8], 85%. Besides, the Activity was found to be 10% in experiment [9]; 12% in experiment [2]; 0% in experiment [13]; 45% in [10]; 58% in experiment [14]; 95% in experiment [15]. The values for the Activity in [3], in [4] and in experiment [16] were 21%, 90% and 0%, respectively.

As to `CCCC(COc1ccc(C(=O)OCC)cc1)Cc1ccccc1` (racemic), the Activity came out at 37% in experiment [1], 87% in [2], 0% in [3] and 22% in [4].

Regarding `CCOC(=O)c1ccc(OCC(Cc2ccccc2)Cc2ccccc2)cc1`, the Activity in [1] is on record as 65%; in [2] it was 95%; in experiment [3], 0%; in experiment [4] it was 35%.

Consider `CCCCC[C@H](COc1ccc(C(=O)OCC)cc1)Cc1ccccc1`, for which the Activity in experiment [1] was determined as 39%; in [2], 17%; in [3] it was 65%; in [4], 97%.

For the compound `CCCCC(COc1ccc(C(=O)O)cc1)Cc1ccccc1` (stereo not given), the Activity in experiment [11] and in experiment [14] was 0% in each case.

`CCCCCC(COc1ccc(C(=O)OCC)cc1)Cc1ccccc1` (racemic): the Activity in experiment [1] came out at 48%; in experiment [2], 20%; in experiment [3] it was 37%; in experiment [4] it was 94%.

The values are drawn from ChEMBL document CHEMBL3045873, “Synthesis and anti-juvenile hormone activity of ethyl 4-(2-benzylalkyloxy)benzoates and their enantiomers” (2007).
